These results are taken from publication PMC4297516 (Bioorganic & medicinal chemistry letters, 2014).

The target in assay [1] is human D2 receptors expressed in stably transfected HEK 293 cells (Homo sapiens, UniProt P14416). The assay can be described thus: forskolin-dependent whole cell adenylyl cyclase inhibition assay, D2. The class given is cell-based. As to conditions: HEK293, read-out: Intrinsic activity hD2 HEK.
Assay [2] deals with human D3 receptors expressed in stably transfected HEK 293 cells (Homo sapiens, UniProt P35462). The experiment in a line: forskolin-dependent whole cell adenylyl cyclase inhibition assay, D3. The class given is cell-based. To be noted: HEK293, read-out: Intrinsic activity hD3 HEK.
human D3 receptors expressed in stably transfected HEK 293 cells, sequence (P35462 whole entry): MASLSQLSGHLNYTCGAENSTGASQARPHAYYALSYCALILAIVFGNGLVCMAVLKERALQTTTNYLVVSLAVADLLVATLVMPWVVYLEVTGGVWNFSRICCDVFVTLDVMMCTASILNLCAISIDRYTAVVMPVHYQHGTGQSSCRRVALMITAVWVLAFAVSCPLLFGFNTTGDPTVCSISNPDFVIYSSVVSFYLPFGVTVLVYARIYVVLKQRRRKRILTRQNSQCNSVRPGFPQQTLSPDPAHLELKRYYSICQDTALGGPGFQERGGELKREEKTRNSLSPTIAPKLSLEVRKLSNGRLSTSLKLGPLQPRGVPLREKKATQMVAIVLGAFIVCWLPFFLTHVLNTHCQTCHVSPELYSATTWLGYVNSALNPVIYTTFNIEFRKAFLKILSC

human D2 receptors expressed in stably transfected HEK 293 cells, sequence (P14416 whole entry): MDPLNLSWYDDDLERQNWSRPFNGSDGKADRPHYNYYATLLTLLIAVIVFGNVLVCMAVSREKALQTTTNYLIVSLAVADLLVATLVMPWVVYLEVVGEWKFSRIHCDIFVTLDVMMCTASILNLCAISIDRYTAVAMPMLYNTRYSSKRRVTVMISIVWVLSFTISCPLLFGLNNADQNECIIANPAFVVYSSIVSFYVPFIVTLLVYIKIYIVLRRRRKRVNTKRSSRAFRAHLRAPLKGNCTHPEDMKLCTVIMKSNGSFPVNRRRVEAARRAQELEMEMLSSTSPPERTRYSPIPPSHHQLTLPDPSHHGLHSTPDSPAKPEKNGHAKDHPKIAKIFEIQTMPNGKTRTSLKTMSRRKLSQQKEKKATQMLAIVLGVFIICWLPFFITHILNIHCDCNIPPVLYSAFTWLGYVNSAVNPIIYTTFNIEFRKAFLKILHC

With `COc1ccccc1N1CCN(CCCCNC(=O)c2ccc(N(C)C)cc2)CC1` [WC 10, 4-(Dimethylamino)-N-[4-(4-(2-methoxyphenyl)piperazin-1-yl)butyl]benzamide], the Emax in assay [1] worked out at 33.5 ± 3.1%; in assay [2], 18.7 ± 2.2%.

Take `COc1ccccc1N1CCN(CCCCNC(=O)c2ccc(CCF)cc2)CC1` [WC 44]: the Emax in assay [1] stood at 35.3 ± 1%.
